Measurements reported in patent US5853731A, “Thromboxane A2 Receptor antagonism and antioxidant action of cinnamophilin and its derivatives, their pharmaceutical compositions and uses” (National Science Council, priority 1997, dated 1998).

How the values were obtained:
[1] = tested on: platelet aggregation, aortic contraction, tracheal contraction; assay: Bioassay / pharmacological evaluation (platelet aggregation, rat aortic contraction, guinea-pig tracheal contraction); details: rat aortic and guinea-pig tracheal contraction bioassays
Procedure: The methods of isolation might be performed using polar organic solvent such as methanol, ethanol and acetone. Solvent of the extract from root parts of Cinnamomum philippinense was evaporated and the residue was suspended in water, and extracted with chloroform or other non-polar organic solvents. Bioassay was performed by using this chloroform layer in platelet aggregation test, rat aortic contraction, and guinea-pig tracheal contraction. Purified bioactive components were obtained through silica gel column, then afforded cinnamophilin (1), two known lignan compounds as (+)-guaiacin (3), meso-dihydroguaiaretic acid (2) and an aromatic acid as vallinic acid.
Compounds II-V wherein R1 represents H, C1-8 alkyl, --OCOR, wherein R2 represents OH, COO--, wherein R represents H, C1-8 alkyl. Preferred substituted alkyl group is 8 carbon number, optical alkyl group is 6 carbon number. Structures of these compounds were elucidated on the basis of their IR, UV, ^1 H-NMR, ^13 C-NMR, Mass spectra as well as the elemental analytical data.

rat thoracic aorta = assay: Rat aortic contraction caused by norepinephrine and high potassium (KCl); assay type: cell-based, Wistar rat; details: 15 min; for K+ contraction (%), Tonic: K+ (80 mM); for norepinephrine contraction (%), Phrase (phasic) / norepinephrine contraction (%), Tonic: norepinephrine 3 μM
Procedure: A. Rat Aortic Contraction
Wistar rats of either sex weighing 250 g to 300 g were killed by a blow to the head. The thoracic aorta was isolated and excess fat and connective tissue were removed. Vessels were cut into rings of about 5 mm in length and mounted in organ baths containing 5 ml Krebs solution of the following composition (mM): NaCl (118.4), KCl (4.7), CaCl (1.9), MgSO4 (1.2), KH2 PO4 (1.2), NaHCO3 (25.0) and glucose (11.7). The tissue bath solution was maintained at 37° C. and gassed with 95% O2 :5% CO2 mixture. Two stainless steel hooks were inserted into the aortic lumen, one was fixed while the other was connected to a transducer. Aortae were equilibrated in the medium for 90 min with three changes of Krebs solution and maintained under an optimal tension of 1 g before specific experimental protocols were initiated.
Contraction was recorded isometrically via a force-displacement transducer connected to a Grass polygraph. Aortae were allowed to preincubate for 15 minutes with cinnamophilin before generating the cumulative concentration-response curve with each agonist for 15-30 min at 3 min intervals. Results are expressed as a percentage of the maximal control response for each agonist.
Rat aorta ring were preincubated with lignans or DMSO (0.1% control) at
37° C. for 15 min, then the inducer was added.

rabbit platelets = assay: Aggregation of washed rabbit platelet suspension induced by AA, PAF, collagen, U-46619, ADP and thrombin; assay type: cell-based
Procedure: A. Preparation of aggregation inducing agent
1. Collagen (bovine tendon) in 15 mM aqueous acetic acid was homogenized at 4° C. to form a well dispersed suspension in 1 mg/ml and stocked at -70° C. Before using, it was thawed and well homogenized.
2. PAF was dissolved in CCl4 and stocked at […] Before using, it was diluted with deionized water.
3. […] and sodium arachidonate (AA) were dissolved in deionized water for use.
B. Preparation of platelets
A suspension of platelets was prepared according to the reported method. EDTA (100 mM) and the blood obtained from rabbit's ear vein were mixed in the ratio of 1:4, and immediately centrifuged (120× g) at room temperature for 10 minutes. Platelet-rich plasma was subjected to further centrifuge (500× g) for another 10 minutes. After the plasma was removed, the platelets in the lower layer were suspended in the Tyrode solution containing EDTA (2 mM) and bovine serum albumin (3.5 mg/ml), and subjected to centrifuge (500× g) again for 10 minutes. The platelets obtained were suspended in a Tyrode solution containing no EDTA, and was adjusted to about 4.5×10^8 cells/ml by a cell counter. 1 mM of calcium ion (Ca^2+) was added to the suspension. 30 minutes after the addition, the experiment was conducted. The composition of Tyrode […]: NaCl (136.9), KCl (2.7), NaH2 PO4 (0.4), NaHCO3 (11.9), glucose (11.1).
C. Platelet aggregation and ATP release reaction test
The method reported by Born (J. Physiol. 168, 178, 1963) was used to determine the platelet aggregation by a Lumi-aggregometer (Model 1020, Payton, Canada). Platelet suspension (0.4 ml) was added into a small glass tube coated with silicone, and stirred at 900 rpm with a small magnetic stirrer. Unless otherwise specified, the antagonist was added 1 minute before the inducing agent, and all the reactions were carried out at 37° C. The aggregation was calculated by following formula: […]
aggregation (% )=(light absorption before adding inducing agent-light absorption after adding inducing agent)/(light absorption before adding inducing agent-light absorption of Tyrode solution)×100% […]
| Platelets were precincubated with 1a, 1b, 1c, 1e, 2 or DMSO (0.5%, | control) at 37° C. for 3 min, then the inducer was added.

[2] = molecular target: thromboxane A2 synthetase; details: Hoet et al., Blood 75, 646-53, 1990; read-out: IC50, thromboxane A2 synthetase inhibition; cited from earlier work
thromboxane receptor = details: Hoet et al., Blood 75, 646-53, 1990; read-out: IC50, thromboxane receptor inhibition; cited from earlier work
[3] = compared with BHA or BHT; background statement; cited from earlier work
[4] = Antioxidation (absorbance at 500 nm, FeSCN method); details: 20 μM
Source text: (Absorbance at 500 nm, using FeSCN method)

[5] = inducer AA (100 μM), conc 20 μM, control 92.1 ± 1.3
[6] = inducer ADP (20 μM), conc 300 μM, control 81.6 ± 3.0
[7] = inducer PAF (2 ng/ml), conc 300 μM, control 91.7 ± 2.0
[8] = inducer U-46619 (1 μM), conc 200 μM, control 89.4 ± 1.2
[9] = inducer collagen (10 μg/ml), conc 50 μM, control 93.6 ± 1.0
[10] = inducer collagen (10 μg/ml), conc 100 μM, control 93.6 ± 1.0
[11] = inducer collagen (10 μg/ml), conc 200 μM, control 93.6 ± 1.0
[12] = inducer thrombin (0.1 U/ml), conc 300 μM, control 94.8 ± 2.0
[13] = inducer AA (100 μM), conc 50 μM, control 92.1 ± 1.3
[14] = inducer AA (100 μM), conc 100 μM, control 92.1 ± 1.3
[15] = inducer AA (100 μM), conc 200 μM, control 92.1 ± 1.3

| SMILES | K+ contraction (%), Tonic (rat thoracic aorta; conc 10 μM) [%] | norepinephrine contraction (%), Phrase (phasic) (rat thoracic aorta; conc 10 μM) [%] | norepinephrine contraction (%), Tonic (rat thoracic aorta; conc 10 μM) [%] | Aggregation (%) (rabbit platelets; [5]) | Aggregation (%) (rabbit platelets; [6]) | Aggregation (%) (rabbit platelets; [7]) | Aggregation (%) (rabbit platelets; [8]) | Aggregation (%) (rabbit platelets; [9]) | Aggregation (%) (rabbit platelets; [10]) | Aggregation (%) (rabbit platelets; [11]) | Aggregation (%) (rabbit platelets; [12]) | Aggregation (%) (rabbit platelets; [13]) | Aggregation (%) (rabbit platelets; [14]) | Aggregation (%) (rabbit platelets; [15]) | also measured |
| --- | --- | --- | --- | --- | --- | --- | --- | --- | --- | --- | --- | --- | --- | --- | --- |
| COc1cc(C[C@@H](C)[C@@H](C)Cc2ccc(O)c(OC)c2)ccc1O [Compound 2, meso-dihydroguaiaretic acid, reference compound] | 14.8 ± 2.1 | 111.1 ± 6.2 | 78.4 ± 8.8 | 0.0 ± 0.0 | 67.9 ± 8.4 | 91.7 ± 2.0 | 88.6 ± 3.2 | 79.7 ± 4.7 | 16.4 ± 4.4 | 0.0 ± 0.0 | 85.3 ± 6.6 |  |  |  | bioactivity [1]: has not been observed; K+ contraction (%), Tonic (rat thoracic aorta; conc 1 μM): 74.0 ± 4.1%; K+ contraction (%), Tonic (rat thoracic aorta; conc 3 μM): 36.5 ± 3.2%; K+ contraction (%), Tonic (rat thoracic aorta; conc 5 μM): 25.7 ± 3.9%; Aggregation (%) (rabbit platelets; inducer AA (100 μM), conc 5 μM, control 92.1 ± 1.3): 76.0 ± 7.8%; Aggregation (%) (rabbit platelets; inducer AA (100 μM), conc 10 μM, control 92.1 ± 1.3): 5.9 ± 5.3% |
| COc1ccc(CC(C)C(C)C(=O)c2ccc(OC)c(OC)c2)cc1OC (stereo not shown) [Compound 4, dimethylcinnamophilin] | 10.5 | 61.3 ± 2.1 | 48.6 ± 3.3 | 87.8 ± 3.3 | 30.7 ± 13.0 | 0.0 ± 0.0 | 86.5 ± 1.7 | 86.2 ± 4.7 | 80.3 ± 3.6 | 7.5 ± 6.4 | 89.7 ± 3.5 | 75.8 ± 10.6 | 37.7 ± 1.6 | 0.0 ± 0.0 |  |
| COc1cc(CC(C)C(C)C(=O)c2ccc(OC(C)=O)c(OC)c2)ccc1OC(C)=O (stereo not shown) [Compound 5] | 18.4 ± 4.7 | 92.2 ± 13.4 | 64.6 ± 9.1 | 86.3 ± 4.6 | 60.7 ± 12.0 | 45.2 ± 9.2 | 88.4 ± 4.3 | 93.4 ± 1.2 | 80.6 ± 4.7 | 8.4 ± 7.3 | 94.9 ± 1.0 | 57.8 ± 2.8 | 0.0 ± 0.0 |  |  |
| COc1cc(CC(C)C(C)C(O)c2ccc(O)c(OC)c2)ccc1O (stereo not shown) [Compound 7, cinnamophilinol] | 66.8 ± 2.2 | 100 | 113.3 ± 7.5 | 86.3 ± 1.0 | 77.3 ± 4.0 | 79.7 ± 6.6 | 90.4 ± 1.4 | 89.7 ± 3.4 | 75.5 ± 2.4 | 0.0 ± 0.0 | 73.2 ± 6.8 | 75.5 ± 6.2 | 10.4 ± 9.0 | 0.0 ± 0.0 | K+ contraction (%), Tonic (rat thoracic aorta; conc 50 μM): 51.0 ± 4.4%; norepinephrine contraction (%), Phrase (phasic) (rat thoracic aorta; conc 50 μM): 95.5 ± 3.2%; norepinephrine contraction (%), Tonic (rat thoracic aorta; conc 50 μM): 85.3 ± 10.4% |
| O=C(O)CCCCO/N=C(/c1cccnc1)c1cccc(C(F)(F)F)c1 [ridogrel] |  |  |  |  |  |  |  |  |  |  |  |  |  |  | IC50 [2]: 5 nM; IC50 (thromboxane receptor): 2000 nM |
| Cc1c(C)c2c(c(C)c1O)CCC(C)(CCCC(C)CCCC(C)CCCC(C)C)O2 (stereo not drawn) [vitamin E, α-tocopherol, reference compound] |  |  |  |  |  |  |  |  |  |  |  |  |  |  | antioxidative action on fatty oils [3]: lower than BHA (t-butylhydroxyanisole) or BHT (t-butylhydroxy toluene); Absorbance at 500 nm ([4]; induce time 0, control 0.047): 0.026; Absorbance at 500 nm ([4]; induce time 4, control 0.084): 0.069; Absorbance at 500 nm ([4]; induce time 7, control 0.201): 0.083; Absorbance at 500 nm ([4]; induce time 10, control 0.343): 0.108; Absorbance at 500 nm ([4]; induce time 16): 0.176; Absorbance at 500 nm ([4]; induce time 19): 0.226; Absorbance at 500 nm ([4]; induce time 22): 0.297; Absorbance at 500 nm ([4]; induce time 25): 0.487; Absorbance at 500 nm ([4]; induce time 28): 1.024 |
